From patent US9550755B2, “Complement pathway modulators and uses thereof” (NOVARTIS AG, priority 2012, dated 2017)

Biological target: Recombinant human factor D (Homo sapiens (Human), UniProt P00746)
Test: Human Complement Factor D Assay: Method 1
Assay type: biochemical
Conditions: recombinant human factor D 10 nM; substrate Z-Lys-thiobenzyl; fluorescence readout; read-out: IC50 (μM), Factor D inhibition using Method 1
Method: Human Complement Factor D Assay: Method 1
Recombinant human factor D (expressed in E. coli and purified using standard methods) at 10 nM concentration is incubated with test compound at various concentrations for 1 hour at room temperature in 0.1 M Hepes buffer, pH 7.5, containing 1 mM MgCl2, 1 M NaCl and 0.05% CHAPS. A synthetic substrate Z-Lys-thiobenzyl and 2,4-dinitrobenzenesulfonyl-fluoresceine are added to final concentrations of 200 μM and 25 μM, respectively. The increase in fluorescence is recorded at excitation of 485 nm and emission at 535 nm in a microplate spectrofluorimeter. IC50 values are calculated from percentage of inhibition of complement factor D-activity as a function of test compound concentration.

Recombinant human factor D, sequence (P00746 26-253): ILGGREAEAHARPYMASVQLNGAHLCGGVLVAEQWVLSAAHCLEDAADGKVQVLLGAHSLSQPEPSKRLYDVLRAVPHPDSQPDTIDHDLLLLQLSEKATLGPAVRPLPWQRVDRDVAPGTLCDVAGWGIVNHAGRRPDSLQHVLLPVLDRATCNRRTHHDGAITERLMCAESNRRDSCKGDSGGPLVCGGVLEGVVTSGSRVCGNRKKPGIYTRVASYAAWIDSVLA

| Structure (SMILES) | IC50 [µM] |
| --- | --- |
| CC(=O)c1nn(CC(=O)N2[C@@H]3C[C@@H]3C[C@H]2C(=O)Nc2ccn(CC(F)(F)F)n2)c2cnccc12 [Example 3, (1R,3S,5R)-2-(2-(3-acetyl-1H-pyrazolo[3,4-c]pyridin-1-yl)acetyl)-N-(1-(2,2,2-trifluoroethyl)-1 H-pyrazol-3-yl)-2-azabicyclo[3.1.0] hexane-3-carboxamide] | 0.083 |
| NC(=O)n1cc(NC(=O)N2[C@@H]3C[C@@H]3C[C@H]2C(=O)Nc2ccn(CC(F)(F)F)n2)c2ccccc21 [Example 5, (1R,3S,5R)—N2-(1-carbamoyl-1H-indol-3-yl)-N3-(1-(2,2,2-trifluoroethyl)-1H-pyrazol-3-yl)-2-azabicyclo[3.1.0]hexane-2,3-dicarboxamide] | 0.032 |
| CC(C)n1ccc(NC(=O)[C@@H]2C[C@H]3C[C@H]3N2C(=O)Cn2nc(C(N)=O)c3ccccc32)n1 [Example 4, 1-(2-((1R,3S,5R)-3-(1-isopropyl-1H-pyrazol-3-ylcarbamoyl)-2-azabicyclo[3.1.0]hexan-2-yl)-2-oxoethyl)-1H-indazole-3-carboxamide] | 0.17 |
| NC(=O)c1nn(CC(=O)N2[C@@H]3C[C@@H]3C[C@H]2C(=O)Nc2ccn(CC(F)(F)F)n2)c2cnccc12 [Example 2, 1-(2-oxo-2-((1R,3S,5R)-3-((1-(2,2,2-trifluoroethyl)-1H-pyrazol-3-yl)carbamoyl)-2-azabicyclo[3.1.0]hexan-2-yl)ethyl)-1H-pyrazolo[3,4-c]pyridine-3-carboxamide] | 0.098 |
| NC(=O)c1nn(CC(=O)N2[C@@H]3C[C@@H]3C[C@H]2C(=O)Nc2ccn(CC(F)(F)F)n2)c2ccccc12 [Example 1, 1-(2-oxo-2-((1R,3S,5R)-3-(1-(2,2,2-trifluoroethyl)-1H-pyrazol-3-ylcarbamoyl)-2-azabicyclo[3.1.0]hexan-2-yl)ethyl)-1H-indazole-3-carboxamide] | 0.064 |
